In patent publication US11066447B2, “Aureobasidium derivatives and methods of synthesis” (AureoGen Biosciences, Inc., priority 2016, dated 2021):
In brackets after ≈: the same amount, converted by molar mass. Like-named read-outs stand apart in the source and are kept apart here. Numbered stars: 1 amine (or outer) side, 2 acyl side, 3 side chain; on linkers, the order of the positions; unused ones are H or OH. Square brackets hold non-standard residues; d marks the D form. Peptide text beside a SMILES is read from it. X26 = CC1CCN(c2cnc(-c3cccc(C[C@@H](C(=O)[*:2])N(C)[*:1])c3)cn2)CC1; X25 = CN([C@@H](Cc1cccc(-c2ccc3cccnc3c2)c1)C(=O)[*:2])[*:1]; Hmp(2R,3S) = CC[C@H](C)[C@@H](O)C(=O)O; NMeVal(β-OH) = CN[C@H](C(=O)O)C(C)(C)O; NMeV = CN[C@H](C(=O)O)C(C)C

Assays:
A. fumigatus MMX 5944 = experiment: MIC/MEC assay (CLSI microdilution); assay type: cell-based; conditions: Aspergillus fumigatus, MMX5944, 48 h; for minimal effective concentration: RPMI plus 0.002% Tween-80; for MIC: RPMI plus 0.002% Tween-80, read-out: MIC
Protocol: (§1) Aureobasidin and test compounds (i.e., AbA derivatives of the present invention) were received from Kalexsyn, Inc. (Kalamazoo, Mich.) as powder and were stored at 4° C. until the day of assay. […] amphotericin was obtained from Sigma Aldrich and stored under like conditions. […] Ethanol (95%) was used as a solvent and diluent for all AbA compounds. Amphotericin B was tested from 0.06-64 μg/mL. Amphotericin B (Sigma Aldrich; St. Louis, Mo.; Cat No. A9528-100MG, Lot No. 120M4087) was dissolved and diluted with dimethylsulfoxide (DMSO; Sigma Aldrich; St. Louis, Mo.; Cat No. 472301 Lot No. SHBD2072V).
(§2) The solvents were added to the test agents and the stock solutions stood for approximately 1 hr at room temperature prior to use to auto sterilize. Stock solutions were prepared at 40× the desired top concentration in the test plate.
(§3) All of the test isolates were originally received from either the American Type Culture Collection (ATCC), clinical labs, or directly from Aureogen Biosciences. Organisms stored by Micromyx were cultured on agar medium appropriate to each organism. Colonies were picked by swab from the isolation plates and put into suspension in appropriate broth containing cryoprotectant. The suspensions were aliquoted into cryogenic vials and maintained at −80° C.
(§4) Prior to testing, Candida isolates were streaked from the frozen vials on Sabouraud dextrose agar. The yeast isolates were incubated for 48 hours at 35° C. before use. The fungal isolates were obtained from enumerated fungal stocks previously prepared at Micromyx and stored in phosphate buffered saline at 4° C.
(§5) Test Media. The medium employed for the MIC assay was RPMI-1640 medium from HyClone Laboratories (Logan, Utah; Lot No. AYB60287A). The medium was prepared according to Clinical and Laboratory Standards Institute (CLSI) guidelines (1, 2), and modified to include 0.002% Tween-80. Candida parapsilosis ATCC 22019 (MMX 2323) and Aspergillus fumigatus ATCC MYA-3626 (MMX 5280) were also tested without Tween-80 to provide data for the quality control of amphotericin B in accordance with CLSI (3) and to assess the effect of Tween-80 on the activity of the test agents.
(§6) Test Procedure. The MIC assay method followed the procedure described by CLSI (1, 2) and employed automated liquid handlers to conduct serial dilutions and liquid transfers. Automated liquid handlers included the Multidrop 384 (Labsystems, Helsinki, Finland), Biomek 2000 and Biomek FX (Beckman Coulter, Fullerton Calif.). The wells in columns 2-12 in standard 96-well microdilution plates (Costar 3795) were filled with 150 μl of the appropriate diluent (95% EtOH for investigational compounds, 100% DMSO for amphotericin B). These assay plates would become the ‘mother plates’ from which the assay ‘daughter plates’ would be prepared. The drugs (300 μL at 40× the desired top concentration in the test plates) were dispensed into the appropriate well in Column 1 of the mother plates. The Biomek 2000 was used to make two-fold serial dilutions through Column 11 in the “mother plate”. The wells of Column 12 contained no drug and served as the organism growth control wells.
(§7) The daughter plates were loaded with 185 μL per well on the Multidrop 384 with RPMI plus 0.002% Tween-80 or RPMI containing no Tween-80 for the testing of the two QC isolates. The daughter plates were prepared on the Biomek FX instrument which transferred 5 μL of drug solution from each well of a mother plate to each corresponding well of each daughter plate in a single step.
(§8) A standardized inoculum of each organism was prepared per CLSI methods (1, 2). For the Candida isolates, colonies were picked from the streak plate and a suspension was prepared in RPMI to equal a 0.5 McFarland standard. This suspension was diluted 1:100 in RPMI resulting in a final concentration of approximately 0.5-2.5×10^3 CFU/mL. […]

[1] = tested on: A. fumigatus from Aureogen; experiment: MIC/MEC assay (CLSI microdilution); assay type: cell-based; conditions: Aspergillus fumigatus, 48 h; for minimal effective concentration: RPMI plus 0.002% Tween-80; for MIC: RPMI plus 0.002% Tween-80, read-out: MIC
Protocol: as §1, §2, §3, §4, §5, §6, §7, §8

[2] = tested on: A. fumigatus MMX 6782 ATCC 13073; experiment: MIC/MEC assay (CLSI microdilution); assay type: cell-based; conditions: Aspergillus fumigatus, ATCC13073, 48 h; for minimal effective concentration: RPMI plus 0.002% Tween-80, read-out: MEC; for MIC: RPMI plus 0.002% Tween-80, read-out: MIC
Protocol: as §1, §2, §3, §4, §5, §6, §7, §8

A. flavus MMX 5948 = experiment: MIC/MEC assay (CLSI microdilution); assay type: cell-based; conditions: Aspergillus flavus, MMX5948, 48 h; for minimal effective concentration: RPMI plus 0.002% Tween-80; for MIC: RPMI plus 0.002% Tween-80, read-out: MIC
Protocol: as §1, §2, §3, §4, §5, §6, §7, §8

[3] = tested on: A. fumigatus MMX 6781 ATCC MYA-4609; experiment: MIC/MEC assay (CLSI microdilution); assay type: cell-based
Protocol: as §1, §2, §3, §4, §5, §6, §7, §8

[4] = tested on: A. niger MMX 0624 ATCC 16888; experiment: MIC/MEC assay (CLSI microdilution); assay type: cell-based; conditions: Aspergillus niger, ATCC16888, 48 h; for minimal effective concentration: RPMI plus 0.002% Tween-80, read-out: MEC; for MIC: RPMI plus 0.002% Tween-80, read-out: MIC
Protocol: as §1, §2, §3, §4, §5, §6, §7, §8

[5] = tested on: C. albicans MMX 2000 ATCC 10231; experiment: MIC assay (CLSI microdilution); assay type: cell-based; conditions: Candida albicans, ATCC10231, RPMI plus 0.002% Tween-80; read-out: MIC
Protocol: as §1, §2, §3, §4, §5, §6, §7, §8

[6] = tested on: C. neoformans MMX 0634 ATCC 90112; experiment: MIC assay (CLSI microdilution); assay type: cell-based; conditions: Cryptococcus neoformans, ATCC90112, RPMI plus 0.002% Tween-80; read-out: MIC
Protocol: as §1, §2, §3, §4, §5, §6, §7, §8

[7] = tested on: A. fumigatus MMX 5280 ATCC MYA-3626; experiment: MIC/MEC assay (CLSI microdilution); assay type: cell-based, Aspergillus fumigatus; conditions: for minimal effective concentration / MIC: Aspergillus fumigatus, 48 h
Protocol: as §1, §2, §3, §4, §5, §6, §7, §8

[8] = tested on: C. parapsilosis MMX 2323 ATCC 22019; experiment: MIC assay (CLSI microdilution); assay type: cell-based, Candida parapsilosis; conditions: read-out: MIC
Protocol: as §1, §2, §3, §4, §5, §6, §7, §8

[9] = RPMI plus 0.002% Tween-80, read-out: MEC
[10] = RPMI plus 0.002% Tween-80, read-out: MIC
[11] = Without Tween-80, read-out: MIC
[12] = ATCC22019, RPMI plus 0.002% Tween-80
[13] = RPMI plus 0.002% Tween-80, 48 hr

Row | Structure (SMILES) | minimal effective concentration (A. fumigatus MMX 5944) | MIC (A. fumigatus MMX 5944) | minimal effective concentration [1] | MIC [1] | minimal effective concentration [2] | MIC [2] | minimal effective concentration (A. flavus MMX 5948) | MIC (A. flavus MMX 5948) | minimal effective concentration [4] | MIC [4] | MIC [5] | MIC [6] | minimal effective concentration [7, 9] | MIC [7, 10] | MIC [7, 11] | MIC [8, 12] | MIC ([8]; ATCC22019, Without Tween-80) | further results
1 | CC[C@H](C)[C@@H]1NC(=O)[C@@H]2CCCN2C(=O)[C@H](Cc2cccc(-c3ccc4cccnc4c3)c2)N(C)C(=O)[C@H](Cc2ccccc2)NC(=O)[C@H](C(C)C)N(C)C(=O)[C@@H]([C@@H](C)CC)OC(=O)[C@H](C(C)(C)O)N(C)C(=O)[C@H](CC(C)C)NC(=O)[C@H](C(C)C)N(C)C1=O [Compound 10] (cyclo(F[X25]PI[NMeV]L[NMeVal(β-OH)][Hmp(2R,3S)][NMeV])) | 0.12 µg/mL | 0.5 µg/mL | 0.25 µg/mL | 1 µg/mL | 0.25 µg/mL | 1 µg/mL | 0.5 µg/mL | 1 µg/mL | 0.06 µg/mL | 0.06 µg/mL | 0.03 µg/mL | 0.12 µg/mL | 0.25 µg/mL | 1 µg/mL | 2 µg/mL (≈ 1.63 µM) | 0.12 µg/mL | 1 µg/mL (≈ 0.814 µM) | MIC ([3]; Aspergillus fumigatus, 48 h, RPMI plus 0.002% Tween-80, read-out: MIC): 1 µg/mL; minimal effective concentration ([3]; Aspergillus fumigatus, RPMI plus 0.002% Tween-80, 48 hr): 0.25 µg/mL; MEC ([7]; Without Tween-80, 48 hr): 1 µg/mL
2 | CC[C@H](C)[C@@H]1NC(=O)[C@@H]2CCCN2C(=O)[C@H](Cc2cccc(-c3cnc(N4CCC(C)CC4)cn3)c2)N(C)C(=O)[C@H](Cc2ccccc2)NC(=O)[C@H](C(C)C)N(C)C(=O)[C@@H]([C@@H](C)CC)OC(=O)[C@H](C(C)(C)O)N(C)C(=O)[C@H](CC(C)C)NC(=O)[C@H](C(C)C)N(C)C1=O [Compound 11] (cyclo(F[X26]PI[NMeV]L[NMeVal(β-OH)][Hmp(2R,3S)][NMeV])) | 2 µg/mL | > 64 µg/mL | 2 µg/mL | > 64 µg/mL | 0.5 µg/mL | > 64 µg/mL | 1 µg/mL | > 64 µg/mL | 0.5 µg/mL | 0.5 µg/mL | 0.06 µg/mL | 0.25 µg/mL | 8 µg/mL | > 64 µg/mL | > 64 µg/mL | 0.25 µg/mL | 1 µg/mL (≈ 0.783 µM) | MEC [3, 13]: 8 µg/mL; MIC [3, 13]: 64 µg/mL; minimal effective concentration ([7]; Without Tween-80, read-out: MEC): 4 µg/mL
